In patent US20240285769A1, “INJECTABLE, BIODEGRADABLE AND REMOVABLE POLYMER BASED DRUG SUSPENSION FOR ULTRA-LONG-ACTING DRUG DELIVERY” (The University of North Carolina at Chapel Hill, priority 2021, published 2024):

Assays:
[1] = In vitro drug release studies of ISFIs; type: physicochemical; details: ISFI suspension 1:4 PLGA/(NMP:DMSO), 290 mg/g
Description: Sample aliquots (1 mL) were collected at various time points and replaced with fresh release medium. The release medium was completely removed and replaced with fresh medium every week to maintain sink conditions. Drug concentration in the release samples was quantified by HPLC using the method described above. Cumulative drug release was calculated from the HPLC analysis and normalized to the total mass of drug in the implant. All experiments were performed in quadruplicate. ISFIs were prepared with 1:2 w/w PLGA:(NMP/DMPS 1:1) (PLGA MW 27 kDa, 50:50 LA/GA). […] To investigate the effect of polymer MW on CAB release kinetics, two CAB suspension ISFIs were prepared using PLGA (50:50 LA/GA) with MW of 10 kDa and 27 kDa. CAB was loaded at a constant concentration of 250 mg/g as a stable suspension formulation in a 1:2 PLGA/solvent (solvent=NMP/DMSO 1:1 w/w). […] 55 μg/d compared to 13.53 μg/d for PLGA MW 27 kDa. […] The effect of formulation composition and addition of rate controlling polymers like star-PLGA (5-arm 50:50 LA/GA PLGA MW 54 kDa) on drug release kinetics were also investigated. Three formulations were prepared using NMP/DMSO (1:1) as a co-solvent system, PLGA (50:50 LA/GA MW 27 kDa) and PLGA/star-PLGA (9:1 w/w) polymer combination. CAB was loaded at a constant concentration of 300 mg/g in all three formulations. […]

[2] = Preparation and optimization of drug suspension formulations; type: physicochemical
Description: The polymer based drug suspensions were prepared by: (1) Placebo formulation: 50:50 Poly(DL-lactide-co-glycolide) (PLGA), MW 10 or 27 kDa, or Poly(lactic acid) (PLA) MW 10 kDa, was mixed with N-methyl-2-pyrrolidone (NMP) or a combination of NMP and DMSO (e.g. 1:1 v/v) at various weight ratios of PLGA/solvent (w/w) and allowed to dissolve by continuous mixing at room temperature (Placebo). […] (2) Drug loading: […] (3) Depot formation: A sample from the resulting drug-loaded suspension formulation (30 μL, 30±3 mg) was injected into 200 mL of 0.01 M PBS pH 7.4 using a pipette and incubated at 37° C. for 24 h to produce a spherical implant, as an example. […] Of importance, but without being limited to any particular theory or mechanism of action, is the ratio of the polymer:solvent:drug that achieves high drug loading in a stable polymeric suspension formulation and which is correlated to the drug's saturation solubility in the solvent system.

SMILES: Cn1c(Cn2ccc(C(F)(F)F)c(Oc3cc(Cl)cc(C#N)c3)c2=O)n[nH]c1=O [DOR, Doravirine]
- burst release in 24 h ([1]; PBS 37° C.): < 2%
- drug release at d3 ([1]; last timepoint analyzed): 3%
- suspension formation when loaded above saturation concentration in PLGA/solvent placebo [2]: formed stable syringeable formulations
- depot formation when injected into aqueous release medium ([2]; PBS, pH 7.4, 37° C.): formation of stable depots
